Several values for one entry are separate records, joined by “and”; a condition that tells them apart may be missing. Equal values may be shown once.
Target: T1, GVIA iPLA2 (Homo sapiens, UniProt O60733)
T1 sequence (O60733 1-806): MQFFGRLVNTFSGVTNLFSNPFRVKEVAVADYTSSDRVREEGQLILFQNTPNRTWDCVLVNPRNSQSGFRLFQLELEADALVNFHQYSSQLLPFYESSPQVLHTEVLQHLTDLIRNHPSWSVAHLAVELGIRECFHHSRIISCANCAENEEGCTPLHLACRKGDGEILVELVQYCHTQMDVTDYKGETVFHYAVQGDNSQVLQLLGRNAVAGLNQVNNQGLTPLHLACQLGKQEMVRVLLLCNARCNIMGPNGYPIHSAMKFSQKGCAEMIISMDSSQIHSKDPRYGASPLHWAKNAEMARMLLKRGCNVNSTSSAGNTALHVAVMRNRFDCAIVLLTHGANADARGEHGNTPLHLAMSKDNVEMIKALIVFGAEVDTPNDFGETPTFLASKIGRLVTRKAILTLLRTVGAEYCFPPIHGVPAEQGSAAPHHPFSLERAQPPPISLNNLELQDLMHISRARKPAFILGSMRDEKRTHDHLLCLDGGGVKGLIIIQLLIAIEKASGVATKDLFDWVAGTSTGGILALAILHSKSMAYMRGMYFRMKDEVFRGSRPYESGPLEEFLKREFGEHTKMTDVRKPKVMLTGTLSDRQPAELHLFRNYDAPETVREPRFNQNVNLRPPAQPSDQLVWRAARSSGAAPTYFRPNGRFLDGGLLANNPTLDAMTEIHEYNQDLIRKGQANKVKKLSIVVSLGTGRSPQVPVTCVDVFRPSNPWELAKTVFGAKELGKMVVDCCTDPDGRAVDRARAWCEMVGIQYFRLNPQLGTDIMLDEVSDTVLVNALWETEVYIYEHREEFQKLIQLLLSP
Experiment: In vitro PLA2 mixed micellar assay (modified Dole assay), GVIA iPLA2
Type: biochemical
Conditions: for GVIA iPLA2 X1(50): mixed micelles, mole fraction of inhibitor in total substrate interface required to inhibit the enzyme by 50%; for GVIA iPLA2 % inhibition: at 0.091 mole fraction of inhibitor, n = 3
Procedure: FIG. 3 illustrates the dose-response curves for 2-oxoamide inhibitors of GVIA iPLA2. Inhibition of the activity of human GVIA iPLA2 by inhibitors (a) 8a and (b) 13 was tested on mixed-micelles containing 100 μM PAPC and 400 μM Triton X-100. Inhibition curves were generated by Graphpad Prism using a non-linear regression (one-site binding model—hyperbola) to calculate the reported XI(50) values.
All the inhibitors synthesized in this work were tested for inhibition of GIVA cPLA2, GVIA iPLA2 and GV sPLA2 using mixed micellar assays. Details for the assays have been published previously. The results of the inhibition are presented in Table 1 using either percent inhibition or XI(50) values. Initially, the percent inhibition of each PLA2 at 0.091 mole fraction of inhibitor was determined. XI(50) values were estimated when the percent inhibition was higher than 90%. The XI(50) is the mole fraction of the inhibitor in the total substrate interface required to inhibit the enzyme by 50%. Data for the reference 2-oxoamide inhibitors AX006 and AX048 are included in Table 1 for comparison.
Phospholipase A2 activity was determined using the previously described modified Dole assay with buffer and substrate conditions optimized for each enzyme as described previously: (i) GIVA cPLA2 substrate mixed-micelles were composed of 400 μM Triton X-100, 97 μM PAPC, 1.8 μM ^14C-labeled PAPC, and 3 μM PIP2 in buffer containing 100 mM HEPES pH 7.5, 90 μM CaCl2, 2 mM DTT and 0.1 mg/ml BSA; (ii) GVI iPLA2 substrate mixed-micelles were composed of either (a) 400 μM Triton X-100, 99 μM DPPC, and 1.5 μM ^14C-labeled DPPC in buffer containing 200 mM HEPES pH 7.0, 1 mM ATP, 2 mM DTT and 0.1 mg/ml BSA or (b) 400 μM Triton X-100, 98.3 μM PAPC, and 1.7 μM ^14C-labeled PAPC in buffer containing 100 mM HEPES pH 7.5, 2 mM ATP and 4 mM DTT; and (iii) GV sPLA2 substrate mixed-micelles were composed of 400 μM Triton X-100, 99 μM DPPC, and 1.5 μM ^14C-labeled DPPC in buffer containing 50 mM Tris pH 8.0 and 5 mM CaCl2.
Initial screening of compounds at 0.091 mole fraction inhibitor in mixed-micelles was carried out. Compounds displaying 25% or less inhibition had no inhibitory affect (designated N.D.). The average percent inhibition (and standard error, n=3) for compounds displaying more than 25% and less than 90% enzyme inhibition is reported herein. If the percent inhibition was greater than 90%, then its XI(50) was determined by plotting percent inhibition vs. inhibitor molar fraction (7 points; typically 0.005 to 0.091 mole fraction). Inhibition curves were modeled in Graphpad Prism using either a linear (x, y intercept=0) or non-linear regression (one-site binding model—hyperbola, BMAX=100) to calculate the reported XI(50) and associated error values.

| Structure (SMILES) | GVIA iPLA2 X1(50) | GVIA iPLA2 % inhibition |
| --- | --- | --- |
| CCCCCCCCCCCCCCC(=O)C(=O)N[C@@H](CCCC)C(=O)NCC(=O)OC [Compound 4a, (S)-Methyl 2-(2-(2-oxohexadecanamido)hexanamido)acetate] | 0.045 ± 0.018 mole fraction |  |
| CCCCCCCCCCCCCCC(=O)C(=O)N[C@@H](CCCC)COCC(=O)OCC [Compound 13, (S)-Ethyl 2-(2-(2-oxohexadecanamido)hexyloxy)acetate] | 0.017 mole fraction and 0.017 ± 0.002 mole fraction |  |
| CCCCCCCCCCCCCCC(=O)C(=O)N[C@@H](CCCC)C(=O)NCC(=O)O [Compound 9a, (S)-2-(2-(2-Oxohexadecanamido)hexanamido)acetic Acid] |  | N.D.^a (N.D. signifies compounds with less than 25% inhibition (or no detectable inhibition).) |
| CCCCCCCCCCCCCCC(=O)C(=O)N[C@@H](CCCC)COCC(=O)OC(C)(C)C [Compound 17, (S)-tert-Butyl 2-(2-(2-oxohexadecanamido)hexyloxy)acetate] |  | 81% |
| CCCCCCCCCCCCCCC(=O)C(=O)N[C@@H](CCCC)COCC(=O)O [Compound 18, (S)-2-(2-(2-oxohexadecanainido)hexyloxy)acetic Acid] |  | N.D.^a (N.D. signifies compounds with less than 25% inhibition (or no detectable inhibition).) |
| CCCCCCCCCCCCCCC(=O)C(=O)N[C@H](C(=O)NCC(=O)O)C(C)C [Compound 9b, (S)-2-(3-Methyl-2-(2-oxohexadecanamido)butanamido)acetic Acid] |  | N.D.^a (N.D. signifies compounds with less than 25% inhibition (or no detectable inhibition).) |
| CCCCCCCCCCCCCCC(=O)C(=O)N[C@H](C(=O)NCC(=O)OC)C(C)C [Compound 4b, (S)-Methyl-2-(3-methyl-2-(2-oxohexadecanamido)butanamido)-acetate] |  | N.D.^a (N.D. signifies compounds with less than 25% inhibition (or no detectable inhibition).) |
| CCCCCCCCCCCCCCC(=O)C(=O)N[C@@H](CCCC)C(=O)NCC(=O)OC(C)(C)C [Compound 8a, (S)-tert-Butyl 2-(2-(2-oxohexadecanamido)hexanamido)acetate] | 0.011 mole fraction and 0.011 ± 0.001 mole fraction |  |
| CCCCCCCCCCCCCCC(=O)C(=O)N[C@@H](CCCC)C(=O)NCC(=O)OCC [Compound 4c, (S)-Ethyl 2-(2-(2-oxohexadecanamido)hexanamido)acetate] | 0.020 mole fraction and 0.020 ± 0.002 mole fraction |  |
| CCCCCCCCCCCCCCC(=O)C(=O)N[C@H](C(=O)NCC(=O)OC(C)(C)C)C(C)C [Compound 8b, (S)-tert-Butyl-2-(3-methyl-2-(2-oxohexadecanamido)butanamido)-acetate] | 0.044 ± 0.025 mole fraction |  |

Source: patent US8580852B2, “2-oxamide inhibitors of phospholipase A2 activity and cellular arachidonate release based on dipeptides and pseudopeptides” (The Regents of the University of California, priority 2009, dated 2013)
